From patent US20100056983A1, “Treatment of cancer using photodynamic therapy” (Health Research, Inc., priority 2007, published 2010)
Marks after values point to notes of the source that are not given here.

How the values were obtained:
[1] = system: squamous cell carcinoma on their larynx; experiment: HPPH-PDT of a patient with squamous cell carcinoma on the larynx (Example 1); format: in vivo, human
Description: A person presented with a squamous cell carcinoma on their larynx. They refused surgery and radiation therapy and chose photodynamic therapy treatment using HPPH (2-[1-hexyloxyethyl]-2-devinyl pyropheophorbide a). They were infused over one hour with HPPH at 4 mg/m^2 (about 0.1 mg/kg). The following day they received non-thermal low power laser light treatment (150 mw/cm) at 665 nm in order to activate the photodynamic process. The light was delivered by a single quartz fiber treaded through a laryngoscope. They received 50 Joules/cm of the 665 nm light over 5.5 min.

[2] = Ratio of normal tissue levels of two photosensitizers in mice to tumor levels; format: in vivo; conditions: 24 h post injection
Description: A table showing relative concentrations in normal tissue and cancer tissue for various tissue types is shown below. Ratios are shown in the form of concentration in normal tissue/concentration in tumor tissue. Lower numbers thus represent less PDT agent (HPPH or porfimer sodium) in normal tissue relative to concentration in tumor tissue. Lower concentrations in normal tissue would be expected to result in less tissue damage at tumor concentrations sufficient to destroy tumor tissue.
Ratios were obtained by dividing actual amounts of the photosensitizer in a given tissue by the amount in the tumor.
Data at 24 h post injection were used since this is the time the mice are treated by light, generally from a laser at non-thermal dose rates.

[3] = Duration of cutaneous photosensitivity after the photosensitizer; format: in vivo
Description: Further, porfimer sodium is activated by light at 630 nm, which is suboptimal for tissue penetration. In addition, in tissues found in the upper respiratory system, side effects to normal tissue proximate to a tumor site has been greater than desirable, e.g. edema and normal tissue destruction, sometimes contributing to weeks for recovery and in some cases possibly causing permanent injury to normal proximate tissue. These drawbacks have led to a search for other photosensitizers without these limitations. This is especially important with respect to cancers that interfere with respiration, e.g. nose, mouth, pharynx, larynx and trachea. Temporary interference with digestive function can be tolerated since the body can cope without food input for a significant period of time and additionally, intravenous feeding can be readily done for temporary nutrition. The same case can of course not be made when respiration is involved since interference with respiration for even a short period is exceedingly distressful and in extreme cases can be fatal. In the case of cancers that involve the upper respiratory system it is therefore exceedingly important that damage to normal tissue be avoided. […]

[4] = system: squamous cell carcinoma of the floor of the mouth; experiment: HPPH-PDT of a patient with squamous cell carcinoma of the floor of the mouth (Example 2); format: in vivo, human
Description: A person presented with a squamous cell carcinoma of the floor of the mouth. They chose to have photodynamic therapy with HPPH (2-[1-hexyloxyethyl]-2-devinyl propheophorbide—a) rather than surgery or radiation therapy. They were infused with 4 mg/m^2 HPPH. The following day they received non-thermal low power laser light (150 mw/cm) at 665 nm in order to activate photodynamic process. The light was delivered by a single quartz fiber threaded through a laryngoscope. They received 50 Joules/cm of the 665 nm light over 5.5 min. […] This was resolved when examined 30 days after treatment.

[5] = system: cancers that involve epithelial type tissue in the upper respiratory system; experiment: Effective photosensitizer dose for PDT of cancers in the upper respiratory system; format: in vivo, human
Description: HPPH is effective at doses of only 0.08 to 0.13 mg/kg of body weight (3.5 mg/m2 of body surface area) versus a minimum of 2 mg/kg of body weight for porfimer sodium.

[6] = system: squamous cell carcinoma of the larynx; conditions: cited from earlier work
[7] = patients after PDT; cited from earlier work
[8] = system: high grade dysplasia / Barrett's mucosa; conditions: 2 mg/kg, 630±5 nm, 100 to 250 joules/cm, cited from earlier work
T1 recurrent lesions = conditions: 26 patients, follow up of 6 to 51 months; cited from earlier work
[9] = 4 mg/m^2 HPPH, 50 Joules/cm at 665 nm
[10] = normalized to 5 mg/kg from data obtained at 27 mg/kg

CCCCCCOC(C)c1c(C)c2cc3nc(c4c5[nH]c(cc6nc(cc1[nH]2)C(C)=C6CC)c(C)c5C(=O)C4)[C@@H](CCC(=O)O)[C@@H]3C (stereo partly shown) [HPPH, 2-(1-hexyloxyethyl)-2-devinyl pyropheophorbide-a]
Effect upon normal tissue [1, 9]: No affect upon normal tissue
Skin photosensitivity [1, 9]: no skin photosensitivity
Response to treatment ([1]; 4 mg/m^2 HPPH, 50 Joules/cm at 665 nm next day, second follow up at 3 months): complete response
Adverse effects after treatment ([1]; completely resolved at first follow up 30 days after treatment): transient edema and hoarseness of voice
Ratio concentration in normal tissue/concentration in tumor tissue: Adrenals [2]: 0.95
Ratio concentration in normal tissue/concentration in tumor tissue: Brain [2]: 0.01
Ratio concentration in normal tissue/concentration in tumor tissue: Kidney [2]: 0.12
Ratio concentration in normal tissue/concentration in tumor tissue: Liver [2]: 1.9
Ratio concentration in normal tissue/concentration in tumor tissue: Lung [2]: 2.7
Ratio concentration in normal tissue/concentration in tumor tissue: Muscle [2]: 0.095
Ratio concentration in normal tissue/concentration in tumor tissue: Pancreas [2]: 0.11
Ratio concentration in normal tissue/concentration in tumor tissue: Spleen [2]: 0.14
Ratio concentration in normal tissue/concentration in tumor tissue: Urinary Bladder [2]: 0.11
Absolute Tumor Levels [2]: 3 µg/g
Duration of prolonged cutaneous photosensitivity ([3]; in vivo): 1-2 weeks
Effect upon normal tissue [4, 9]: No effect upon normal tissue
Skin photosensitivity [4, 9]: no skin photosensitivity
Response to treatment ([4]; 4 mg/m^2 HPPH, 50 Joules/cm at 665 nm next day, follow up at 6 months, confirmed by biopsy): complete response
Adverse effects after treatment ([4]; controlled with analgesics, resolved when examined 30 days after treatment): transient moderate pain at the treatment site
Effective dose per body surface area ([5]; with light exposure at 665±5 nm): 3.5 mg/m2 of body surface area

porfimer sodium
Recurrences ([6]; 117 patients treated for cure, follow-up to 189 months (mean 84 months)): 10
Adverse reactions ([6]; 117 patients with squamous cell carcinoma of the larynx): edema and erythema
Ratio concentration in normal tissue/concentration in tumor tissue: Adrenals [2, 10]: 6.5^###
Ratio concentration in normal tissue/concentration in tumor tissue: Brain [2, 10]: 0.05^###
Ratio concentration in normal tissue/concentration in tumor tissue: Kidney [2]: 4
Ratio concentration in normal tissue/concentration in tumor tissue: Liver [2]: 7
Ratio concentration in normal tissue/concentration in tumor tissue: Lung [2]: 1.7
Ratio concentration in normal tissue/concentration in tumor tissue: Muscle [2]: 0.33
Ratio concentration in normal tissue/concentration in tumor tissue: Pancreas [2, 10]: 4.3^###
Ratio concentration in normal tissue/concentration in tumor tissue: Skin [2]: about 0.93
Ratio concentration in normal tissue/concentration in tumor tissue: Skin ([2]; listed as PHOTOFRIN): 0.93
Ratio concentration in normal tissue/concentration in tumor tissue: Spleen [2, 10]: 3.1^###
Ratio concentration in normal tissue/concentration in tumor tissue: Urinary Bladder [2, 10]: 5.9^###
Absolute Tumor Levels [2]: 1.05 µg/g
Duration of prolonged cutaneous photosensitivity ([3]; patients after PDT): 4-6 weeks
Period of complete protection from sunlight and bright light because of skin photosensitization [7]: up to 90 days
Effective dose ([5]; with light exposure (HPPH 665±5 nm)): ≥ 2 mg/kg of body weight
Destruction of high grade dysplasia ([8]; 100 patients): all patients treated
Patients with complete ablation of Barrett's mucosa ([8]; 100 patients): 43%
Patients with esophageal strictures ([8]; all patients treated): 34%
Patients with complete ablation of Barrett's mucosa with PDT treatment only [8]: 8%
Patients with complete ablation who required thermal ablation of small residual islands [8]: 35%
Complete response (T1 recurrent lesions): 77%
